Experiment: Zeta potential (surface potential) measurement after each polyelectrolyte coating
Assay type: physicochemical
Description: 5 mg paclitaxel or atavoquone was dissolved in 5 mL of a 60% ethanol/water or a 60% acetone/water solution in a glass tube. This solution was ultrasonicated at 100% amplitude for 2 min, and then 1 mL of a 5 mg/mL polylysine, polyethylenimine, or protomine sulphate solution was added. This was then ultrasonicated for 1 min while adding water at certain speeds and volumes (e.g., 1 mL/min until 5 mL to 10 mL was reached). This was then ultrasonicated for another 30 min. After sonication, the zeta potential of the sample was measured to assure recharging of the formed paclitaxel nanocrystals to positive. Layer-by-layer (LbL) coating with 2 layers of BSA/PS (bovine serum albumin/protamine sulfate) was performed (as described in, e.g., WO2009/012303), followed by SEM readings and measurement of zeta potential.
After each coating, a sample was taken and surface potential was measured using a Zeta potential analyzer.
PAH and PSS were alternately added to the curcumin nanoparticles using the LbL procedure. […] PAH adsorption during nanoparticles synthesis converted the potential to +30±2 mV. Next, anionic PSS adsorption changed the potential to −53±2 mV, followed by +19±2 mV with the addition of PAH, and again to −50±2 mV with the addition of PSS. Therefore, multiple layers of polycations and polyanions, i.e., (PAH/PSS)2, were coated onto the curcumin nanoparticles.

Row | Structure (SMILES) | zeta potential (bare, initial potential, FIG. 7) | zeta potential (initial paclitaxel compound, no coating, FIG. 4)
1 | COc1cc(/C=C/C(=O)CC(=O)/C=C/c2ccc(O)c(OC)c2)ccc1O [bare curcumin microparticles, curcumin] | −50±2 mV | –
2 | CC(=O)O[C@H]1C(=O)[C@@]2(C)[C@H]([C@H](OC(=O)c3ccccc3)[C@]3(O)C[C@H](OC(=O)[C@H](O)[C@@H](NC(=O)c4ccccc4)c4ccccc4)C(C)=C1C3(C)C)[C@]1(OC(C)=O)CO[C@@H]1C[C@@H]2O [paclitaxel] | – | about −60 mV
